# Source: patent US9566263B2, “Methods and formulations for treating scars and β-catenin-mediated disorders” (Hospital for Sick Children, priority 2009, dated 2017)
# “Also recorded” adds a separate entry of the source.
# Legend:
# [1] = test system: primary cells derived from human AF tumours; assay: Trypan Blue cell viability, human AF tumour cells; assay type: cell-based; details: 5 days, vs 0.1% DMSO
# Experimental: (§1) Primary cell cultures from the human AF tumour and normal fascial tissue samples were established. Monolayer cultures were cultured in DMEM supplemented with 10% fetal bovine serum and maintained at 37° C. in 5% CO2. Cells were divided when confluent and experiments were performed between the first and fifth passages.
# (§2) Cell viability was measured using the Trypan Blue Dye Exclusion method. Cells were stained with Trypan Blue Dye at a 1:1 ratio, and both live (clear) and dead (blue) cells were accounted for. Proliferation was measured using 5-bromo-2-deoxy-uridine (BrdU) Incorporation assay. After BrdU incubation for 12 hours, cells with incorporated BrdU were identified using […] anti-BrdU antibody and horse anti-mouse antibody conjugated to Alkaline Phosphatase. Presence of BrdU was detected using Alkaline Phosphatase substrate. Percentage of positively stained nuclei out of total nuclei was analyzed over 10 high-powered fields.
# β-catenin [2] = assay: Western blot/densitometry of β-catenin in human AF tumour primary cell cultures; assay type: cell-based
# Experimental: Primary cell cultures from the human AF tumour and normal fascial tissue samples were established. Monolayer cultures were cultured in DMEM supplemented with 10% fetal bovine serum and maintained at 37° C. in 5% CO2. Cells were divided when confluent and experiments were performed between the first and fifth passages. […] Tissue samples were washed twice with PBS and lysed with Reporter Gene Assay Lysis Buffer (Roche). Lysates were centrifuged at 16,000×g for 5 minutes to remove cell debris and quantified using the Bicinchoninic Acid (BCA) Protein Assay (Pierce). Equal amounts of total protein were separated by electrophoresis through an SDS-polyacrylamide gel, transferred to a nitrocellulose membrane (Amersham), and immunoblotted overnight at 4° C. with primary antibodies against phosphoGSK3β ([…], rabbit polyclonal, New England Biolabs), β-catenin (mouse monoclonal, Upstate Biotechnology), total GSK3β (mouse monoclonal, Transduction Laboratories), and GAPDH (mouse monoclonal, Upstate Biotechnology). Horseradish Peroxidase (HRP)-tagged secondary antibodies and Enhanced ChemiLuminescence (Amersham) were used to detect hybridization. Densitometery was performed using the AlphaEaseFC software (Alpha Innotech). Western blotting was performed in triplicates to ensure reproducibility.
# [3] = test system: aggressive fibromatosis (AF) tumours; assay: Apc+/Apc1638N AF mouse model; assay type: in vivo; details: male Apc/Apc1638N mice
# Source text: The generation and phenotype of Apc/Apc1638N mice have been well characterized. These mice harbour a targeted mutation at codon 1638 in the Apc gene as a result of a neomycin insert in antisense orientation at exon 15. […] Treatment by daily oral gavaging began 2 months after Apc/Apc1638N mice were weaned and continued for 3 months. At autopsy, AF tumours and intestinal polyps were scored macroscopically. AF tumours and normal tissue were collected for protein extraction and fixed for histological examination.
# hyperplastic scars = assay: TGF-β induced hyperplastic scar model; assay type: in vivo, mouse; details: mice, TGF-β injected prior to wounding, 4 mm punch wounds, 40 mg/kg daily
# Experimental: Both oral and intraperitoneal administration routes were evaluated (40 mg/kg body weight, daily; 0.1% DMSO as control).
# [4] = test system: primary cells derived from human aggressive fibromatosis tumours; assay: BrdU incorporation proliferation assay, human AF tumour cells; assay type: cell-based; details: 5 days, vs DMSO
# Experimental: as §1, §2
# [5] = test system: 4 mm full thickness cutaneous wounds; assay: Wound/scar size in Tcf mice, systemic Nefopam; assay type: in vivo, mouse; details: 4 mm punch wound, 40 mg/kg daily systemic, day 14 post-wounding, vs saline carrier
# Source text: A Tcf-reporter construct containing the lacZ gene downstream of a c-Fos minimal promoter and three consensus Tcf-binding motifs was constructed. Upon binding of β-catenin/Tcf complex to Tcf motifs, the expression of lacZ is activated. Tcf mice were wounded as described previously: two 4 mm diameter full-thickness skin wounds were generated using a dermal biopsy punch (Miltex Instrument Company, York, Pa., USA). […] At 14 days post-wounding, wound sizes were examined, and wound tissues were collected for RNA and protein extraction and fixed for histological examination. […] Cutaneous wounds were generated using a biopsy punch procedure resulting in a 4 mm diameter full thickness circular wound. Scale is in mm units.
# β-catenin [6] = assay: Western blot of β-catenin in wounds of Tcf mice; assay type: in vivo, mouse; details: 40 mg/kg daily intraperitoneal, 14 days post-wounding, vs control
# Source text: A Tcf-reporter construct containing the lacZ gene downstream of a c-Fos minimal promoter and three consensus Tcf-binding motifs was constructed. Upon binding of β-catenin/Tcf complex to Tcf motifs, the expression of lacZ is activated. Tcf mice were wounded as described previously: two 4 mm diameter full-thickness skin wounds were generated using a dermal biopsy punch (Miltex Instrument Company, York, Pa., USA). […] At 14 days post-wounding, wound sizes were examined, and wound tissues were collected for RNA and protein extraction and fixed for histological examination. Tissue samples were washed twice with PBS and lysed with Reporter Gene Assay Lysis Buffer (Roche). Lysates were centrifuged at 16,000×g for 5 minutes to remove cell debris and quantified using the Bicinchoninic Acid (BCA) Protein Assay (Pierce). Equal amounts of total protein were separated by electrophoresis through an SDS-polyacrylamide gel, transferred to a nitrocellulose membrane (Amersham), and immunoblotted overnight at 4° C. with primary antibodies against phosphoGSK3β ([…], rabbit polyclonal, New England Biolabs), β-catenin (mouse monoclonal, Upstate Biotechnology), total GSK3β (mouse monoclonal, Transduction Laboratories), and GAPDH (mouse monoclonal, Upstate Biotechnology). Horseradish Peroxidase (HRP)-tagged secondary antibodies and Enhanced ChemiLuminescence (Amersham) were used to detect hybridization. […]
# [7] = test system: normal dermal fibroblast cultures; assay: SRB cell viability, normal fibroblasts; assay type: cell-based, human; details: SRB assay
# Experimental: (§3) The biological relevance of the screen was considerable since cells used for the screen were obtained from patients with hyperplastic wounds as well as healthy tissue. The experiments were repeated in triplicate within 96 well plates, with each well containing 4000 cells treated with between 0.1 1.0, or 10 μM of compound or DMSO as a control. The Sulforhodamine B assay (SRB) was used to measure cell viability.
# [8] = test system: cultured cells derived from hyperplastic wounds; assay: SRB cell viability, hyperplastic wound cells; assay type: cell-based, human; details: hyperplastic wound cell cultures, vs DMSO control, SRB assay
# Experimental: as §3
# β-catenin [9] = assay: Western blot/densitometry of β-catenin in human fibroblast cells; assay type: cell-based
# Experimental: (§4) Tissue samples were washed twice with PBS and lysed with Reporter Gene Assay Lysis Buffer (Roche). Lysates were centrifuged at 16,000×g for 5 minutes to remove cell debris and quantified using the Bicinchoninic Acid (BCA) Protein Assay (Pierce). Equal amounts of total protein were separated by electrophoresis through an SDS-polyacrylamide gel, transferred to a nitrocellulose membrane (Amersham), and immunoblotted overnight at 4° C. with primary antibodies against phosphoGSK3β ([…], rabbit polyclonal, New England Biolabs), β-catenin (mouse monoclonal, Upstate Biotechnology), total GSK3β (mouse monoclonal, Transduction Laboratories), and GAPDH (mouse monoclonal, Upstate Biotechnology). Horseradish Peroxidase (HRP)-tagged secondary antibodies and Enhanced ChemiLuminescence (Amersham) were used to detect hybridization. Densitometery was performed using the AlphaEaseFC software (Alpha Innotech). Western blotting was performed in triplicates to ensure reproducibility. Hyperplastic wounds are characterized by elevated β-catenin levels during the proliferative phase.
# β-catenin [10] = assay: Western blot of β-catenin in hyperplastic wound cell cultures; assay type: cell-based, human; details: vs DMSO control
# Experimental: as §4, with “reproducibility.” for “reproducibility. Hyperplastic wounds are characterized by elevated”, “in cell cultures from hyperplastic scars treated with Nefopam or control were analyzed using Western blot analysis. […] GAPDH expression was included as a loading control.” for “during the proliferative phase.”
compound,measurement,setting,value
"CN1CCOC(c2ccccc2)c2ccccc2C1 (stereo not drawn) [Nefopam, 5-methyl-1-phenyl-1,3,4,6-tetrahydro-2,5-benzoxazocine]",number of dead cells,[1],the number of dead cells did not change; also recorded: no significant differences in the number of dead cells
same,number of live cells,[1],significantly decreased the number of live cells; also recorded: significantly smaller number of live cells
same,decrease in total β-catenin levels (densitometry),β-catenin [2]; 250 μm Nefopam for 5 days vs 0.1% DMSO,~5 fold
same,"total β-catenin protein (92 kDa), Western blot",β-catenin [2]; treatment for 5 days,marked decrease in the amount of protein
same,number of epithelial-derived polyps in the upper gastrointestinal tract,[3]; 40 mg/kg daily oral gavage,no significant differences
same,number of AF tumours formed,"[3]; 40 mg/kg daily oral gavage for 3 months, at 6 months of age, mean ± 95% CI",8.18±1.77
same,hyperplastic scar size,hyperplastic scars,smaller scars
same,percent BrdU+/DAPI+ cells (proliferation),[4],significantly reduces the incorporation of BrdU; also recorded: significantly fewer proliferating cells
same,scar diameter,[5],significantly smaller in diameter
same,β-catenin levels in wounds,β-catenin [6],decrease in β-catenin levels
same,percent cell survival,[7],remained relatively unchanged
same,percent cell survival,[8],significant decline in the percent of cells surviving
same,decrease in total β-catenin levels (densitometry),β-catenin [9]; human fibroblast cell cultures vs 0.1% DMSO,approximately 4 fold
same,"total β-catenin protein levels, Western blot",β-catenin [9]; immortalized human fibroblast cells vs DMSO,significant decrease in total β-catenin protein levels
same,β-catenin protein levels,β-catenin [10],substantially reduce β-catenin protein levels; also recorded: substantially reduced the protein level of β-catenin
